Test results: PubChem BioAssay (NCI)
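Step 1: Grow cells in 96-well plates. Step 2: Expose to compound for 48 hours at 5 concentrations. Step 3: Interpolate endpoints linearly; if unreached, use highest concentration. TGI: concentration producing complete growth inhibition.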

How the values were obtained:
Test in all cases: DTP human tumour cell line panel, 48 h
CAKI-1 renal = test system: CAKI-1 renal
HOP-92 NSCLC = test system: HOP-92 NSCLC
M14 melanoma = test system: M14 melanoma
786-0 renal = test system: 786-0 renal
A498 renal = test system: A498 renal
SNB-78 CNS = test system: SNB-78 CNS
NCI-H522 lung = test system: NCI-H522 lung
OVCAR-8 ovarian = test system: OVCAR-8 ovarian
HCT-15 colon = test system: HCT-15 colon
RPMI-8226 leukemia = test system: RPMI-8226 leukemia
SR leukemia = test system: SR leukemia
RXF-631 renal = test system: RXF-631 renal
MALME-3M melanoma = test system: MALME-3M melanoma
HT29 colon = test system: HT29 colon
NCI-H23 lung = test system: NCI-H23 lung
SN12C renal = test system: SN12C renal
UACC-62 melanoma = test system: UACC-62 melanoma
SF-295 CNS = test system: SF-295 CNS
LOX IMVI melanoma = test system: LOX IMVI melanoma
OVCAR-4 ovarian = test system: OVCAR-4 ovarian
A549 NSCLC = test system: A549 NSCLC
OVCAR-3 ovarian = test system: OVCAR-3 ovarian
SNB-75 CNS = test system: SNB-75 CNS
SW-620 colon = test system: SW-620 colon
UACC-257 melanoma = test system: UACC-257 melanoma
DMS 273 small cell lung = test system: DMS 273 small cell lung
SNB-19 CNS = test system: SNB-19 CNS
HCT-116 colon = test system: HCT-116 colon
U251 CNS = test system: U251 CNS
XF 498 CNS = test system: XF 498 CNS
NCI-H226 lung = test system: NCI-H226 lung
HOP-18 NSCLC = test system: HOP-18 NSCLC
UO-31 renal = test system: UO-31 renal
M19-MEL melanoma = test system: M19-MEL melanoma
SK-OV-3 ovarian = test system: SK-OV-3 ovarian
RXF 393 renal = test system: RXF 393 renal
EKVX NSCLC = test system: EKVX NSCLC
HOP-62 NSCLC = test system: HOP-62 NSCLC
DMS 114 small cell lung = test system: DMS 114 small cell lung
SK-MEL-28 melanoma = test system: SK-MEL-28 melanoma
MOLT-4 leukemia = test system: MOLT-4 leukemia
SF-268 CNS = test system: SF-268 CNS
ACHN renal = test system: ACHN renal
DLD-1 colon = test system: DLD-1 colon
K-562 leukemia = test system: K-562 leukemia
LXFL 529 NSCLC = test system: LXFL 529 NSCLC
SK-MEL-5 melanoma = test system: SK-MEL-5 melanoma
HL-60(TB) leukemia = test system: HL-60(TB) leukemia
KM20L2 colon = test system: KM20L2 colon
SK-MEL-2 melanoma = test system: SK-MEL-2 melanoma
CCRF-CEM leukemia = test system: CCRF-CEM leukemia
KM12 colon = test system: KM12 colon
SF-539 CNS = test system: SF-539 CNS
IGROV1 ovarian = test system: IGROV1 ovarian
NCI-H460 lung = test system: NCI-H460 lung
TK-10 renal = test system: TK-10 renal
HCC-2998 colon = test system: HCC-2998 colon
COLO 205 colon = test system: COLO 205 colon
T-47D breast = test system: T-47D breast
NCI/ADR-RES ovarian = test system: NCI/ADR-RES ovarian
DU-145 prostate = test system: DU-145 prostate
OVCAR-5 ovarian = test system: OVCAR-5 ovarian
BT-549 breast = test system: BT-549 breast
MDA-N = test system: MDA-N
MCF7 breast = test system: MCF7 breast
MDA-MB-435 = test system: MDA-MB-435
PC-3 prostate = test system: PC-3 prostate
MDA-MB-231 breast = test system: MDA-MB-231 breast
HS 578T breast = test system: HS 578T breast

Molecule `O=[N+]([O-])c1ccc(N=Nc2c(O)[nH]c3ccc(Br)cc23)cc1` has a TGI (CAKI-1 renal) of over 58.4 µM, a TGI (HOP-92 NSCLC) of 26.5 µM and a TGI (M14 melanoma) of over 52.8 µM. It also gave a TGI (786-0 renal) of 25.2 µM, a TGI (A498 renal) of 49.1 µM and a TGI (SNB-78 CNS) of 42.3 µM. It also gave a TGI (NCI-H522 lung) of over 87.7 µM, a TGI (OVCAR-8 ovarian) of 28.3 µM and a TGI (HCT-15 colon) of over 74.3 µM. The TGI (RPMI-8226 leukemia) was 45.6 µM, the TGI (SR leukemia) was over 53.9 µM and the TGI (RXF-631 renal) was 33 µM. The TGI (MALME-3M melanoma) was 58 µM, the TGI (HT29 colon) was over 100 µM and the TGI (NCI-H23 lung) was over 51.3 µM. It also gave a TGI (SN12C renal) of over 31.6 µM, a TGI (UACC-62 melanoma) of over 51.2 µM and a TGI (SF-295 CNS) of 25 µM. For the same molecule, the TGI (LOX IMVI melanoma) was 48.8 µM, the TGI (OVCAR-4 ovarian) was 33.4 µM and the TGI (A549 NSCLC) was 44.9 µM. For the same molecule, the TGI (OVCAR-3 ovarian) was 45.9 µM, the TGI (SNB-75 CNS) was over 48.1 µM and the TGI (SW-620 colon) was over 100 µM. For the same molecule, the TGI (UACC-257 melanoma) was 43.4 µM, the TGI (DMS 273 small cell lung) was 24 µM and the TGI (SNB-19 CNS) was 36.6 µM. It also gave a TGI (HCT-116 colon) of 80.1 µM, a TGI (U251 CNS) of 38.2 µM and a TGI (XF 498 CNS) of 53.7 µM. For the same molecule, the TGI (NCI-H226 lung) was 37.2 µM, the TGI (HOP-18 NSCLC) was 40.6 µM and the TGI (UO-31 renal) was over 73.5 µM. The TGI (M19-MEL melanoma) was 34.7 µM, the TGI (SK-OV-3 ovarian) was 45.6 µM and the TGI (RXF 393 renal) was 35.6 µM. The TGI (EKVX NSCLC) was 58.9 µM, the TGI (HOP-62 NSCLC) was 33.8 µM and the TGI (DMS 114 small cell lung) was 47.7 µM. It also gave a TGI (SK-MEL-28 melanoma) of 32.9 µM, a TGI (MOLT-4 leukemia) of over 51.7 µM and a TGI (SF-268 CNS) of 34.8 µM. For the same molecule, the TGI (ACHN renal) was 42.7 µM, the TGI (DLD-1 colon) was over 46.8 µM and the TGI (K-562 leukemia) was over 43 µM. The TGI (LXFL 529 NSCLC) was over 68.7 µM, the TGI (SK-MEL-5 melanoma) was over 68 µM and the TGI (HL-60(TB) leukemia) was 25.2 µM. It also gave a TGI (KM20L2 colon) of over 100 µM, a TGI (SK-MEL-2 melanoma) of 99.2 µM and a TGI (CCRF-CEM leukemia) of over 49.1 µM. For the same molecule, the TGI (KM12 colon) was over 100 µM, the TGI (SF-539 CNS) was 32.1 µM and the TGI (IGROV1 ovarian) was over 53.2 µM. For the same molecule, the TGI (NCI-H460 lung) was over 46.5 µM, the TGI (TK-10 renal) was 36 µM and the TGI (HCC-2998 colon) was over 100 µM. The TGI (COLO 205 colon) was over 68.7 µM.
For `O=C1CCC(C(=O)O)C2=C1CCCC2` (configuration not stated), the TGI (CAKI-1 renal) was over 100 µM, the TGI (HOP-92 NSCLC) was over 100 µM and the TGI (M14 melanoma) was over 100 µM. For the same molecule, the TGI (786-0 renal) was over 100 µM, the TGI (A498 renal) was over 100 µM and the TGI (SNB-78 CNS) was over 100 µM. The TGI (T-47D breast) was over 100 µM, the TGI (NCI-H522 lung) was over 100 µM and the TGI (OVCAR-8 ovarian) was over 100 µM. It also gave a TGI (HCT-15 colon) of over 100 µM, a TGI (RPMI-8226 leukemia) of over 100 µM and a TGI (SR leukemia) of over 100 µM. The TGI (RXF-631 renal) was over 100 µM, the TGI (MALME-3M melanoma) was over 100 µM and the TGI (HT29 colon) was over 100 µM. It also gave a TGI (NCI-H23 lung) of over 100 µM, a TGI (NCI/ADR-RES ovarian) of over 100 µM and a TGI (SN12C renal) of over 100 µM. The TGI (UACC-62 melanoma) was over 100 µM, the TGI (SF-295 CNS) was over 100 µM and the TGI (LOX IMVI melanoma) was over 100 µM. It also gave a TGI (OVCAR-4 ovarian) of over 100 µM, a TGI (A549 NSCLC) of over 100 µM and a TGI (OVCAR-3 ovarian) of over 100 µM. It also gave a TGI (DU-145 prostate) of over 100 µM, a TGI (SNB-75 CNS) of over 100 µM and a TGI (SW-620 colon) of over 100 µM. For the same molecule, the TGI (UACC-257 melanoma) was over 100 µM, the TGI (DMS 273 small cell lung) was over 100 µM and the TGI (OVCAR-5 ovarian) was over 100 µM. For the same molecule, the TGI (SNB-19 CNS) was over 100 µM, the TGI (BT-549 breast) was over 100 µM and the TGI (MDA-N) was over 100 µM. The TGI (HCT-116 colon) was over 100 µM, the TGI (U251 CNS) was over 29.8 µM and the TGI (XF 498 CNS) was over 100 µM. For the same molecule, the TGI (NCI-H226 lung) was over 21.5 µM, the TGI (HOP-18 NSCLC) was over 100 µM and the TGI (UO-31 renal) was over 100 µM. The TGI (MCF7 breast) was over 100 µM, the TGI (M19-MEL melanoma) was over 100 µM and the TGI (SK-OV-3 ovarian) was over 100 µM. For the same molecule, the TGI (RXF 393 renal) was over 100 µM, the TGI (EKVX NSCLC) was over 100 µM and the TGI (HOP-62 NSCLC) was over 100 µM. The TGI (DMS 114 small cell lung) was over 100 µM, the TGI (SK-MEL-28 melanoma) was over 100 µM and the TGI (MDA-MB-435) was over 100 µM. It also gave a TGI (PC-3 prostate) of over 100 µM, a TGI (MOLT-4 leukemia) of over 100 µM and a TGI (SF-268 CNS) of over 100 µM. The TGI (ACHN renal) was over 100 µM, the TGI (DLD-1 colon) was over 100 µM and the TGI (MDA-MB-231 breast) was over 100 µM. It also gave a TGI (K-562 leukemia) of over 100 µM, a TGI (LXFL 529 NSCLC) of over 100 µM and a TGI (SK-MEL-5 melanoma) of over 100 µM. For the same molecule, the TGI (HL-60(TB) leukemia) was over 100 µM, the TGI (KM20L2 colon) was over 100 µM and the TGI (SK-MEL-2 melanoma) was over 100 µM. It also gave a TGI (HS 578T breast) of over 100 µM, a TGI (CCRF-CEM leukemia) of over 100 µM and a TGI (KM12 colon) of over 100 µM. The TGI (SF-539 CNS) was over 100 µM, the TGI (IGROV1 ovarian) was over 100 µM and the TGI (NCI-H460 lung) was over 100 µM. It also gave a TGI (TK-10 renal) of over 100 µM, a TGI (HCC-2998 colon) of over 100 µM and a TGI (COLO 205 colon) of over 100 µM.
